Results as given in patent EP1581471B9, “CYCLOPENTENONE DERIVATIVES FOR CANCER THERAPY” (Dabur Research Foundation, priority 2002, dated 2004).
In brackets after ≈: the same amount, converted by molar mass. One block for each compound: values may come before it.

Key:
293 = assay: three day MTT cytotoxicity assay; type: cell-based, human; details: 293 (kidney), 72 hours
Procedure: (§1) A number of the cyclopentenone derivatives were tested for cytotoxicity against 9 human tumor cell lines. Briefly, a three day MTT cytotoxicity assay was performed, which is based on the principle of uptake of MTT (3-(4,5-dimethylthiazol-2-yl)-2,5-diphenyl tetrazolium bromide), a tetrazolium salt, by the metabolically active cells where it is metabolized by active mitochondria into a blue colored formazan product that is read spectrophotometrically. MTT was dissolved in phosphate buffered saline with a pH of 7.4 to obtain an MTT concentration of 5mg/ml; the resulting mixture was filtered through a 0.22 micron filter to sterilize and remove a small amount of insoluble residue. For each type of tumor cell, 10000 to 15000 cells were seeded in a 96-well culture plate and incubated with the individual cyclopentenone derivatives in a CO2 incubator for a total of 72 hours. Control cells not treated with the cyclopentenone derivatives were similarly incubated. The assay was terminated by adding 100 ug (20 ul) of MTT to each well, then incubating for additional one hour, and finally adding 50 ul of 10% SDS-0.01N HCl to each well to lyse the cells and dissolve formazan. After incubating for one hour, the plate was read spectrophotometrically at 540 nm and the percentage of cytotoxicity calculated using the following formula: Cytotoxicity percentage = 100 × [1-(X/R1)], [formula] where X = (absorbance of treated sample at 540 nm) - (absorbance of blank at 540 nm) R1 = absorbance of control sample at 540 nm.
(§2) The ED50 Values of the cytotoxicity defined as the concentration at which 50 % of the cells are killed in vitro was calculated for each cell line treated with each of the cyclopentenone derivatives.
(§3) The cell lines are PTC (all colon), MOLT-4 (leukemia), SW620 […], DU145 (prostate), KB (oral squamous cell), L132 (lung), MIAPaCa2 (Pancreas), Hep2, (larynx), PA-1 (ovary), HuTu80 (duodenum), ECV 304 (endothelial), and 293 (kidney).

DU145 = assay: three day MTT cytotoxicity assay; type: cell-based, human; details: DU145 (prostate), 72 hours
Procedure: as §1, §2, §3

ECV 304 = assay: three day MTT cytotoxicity assay; type: cell-based, human; details: ECV 304 (endothelial), 72 hours
Procedure: as §1, §2, §3

Hep2 = assay: three day MTT cytotoxicity assay; type: cell-based, human; details: Hep2 (larynx), 72 hours
Procedure: as §1, §2, §3

HuTu80 = assay: three day MTT cytotoxicity assay; type: cell-based, human; details: HuTu80 (duodenum), 72 hours
Procedure: as §1, §2, §3

KB = assay: three day MTT cytotoxicity assay; type: cell-based, human; details: KB (oral squamous cell), 72 hours
Procedure: as §1, §2, §3

L132 = assay: three day MTT cytotoxicity assay; type: cell-based, human; details: L132 (lung), 72 hours
Procedure: as §1, §2, §3

MIAPaCa2 = assay: three day MTT cytotoxicity assay; type: cell-based, human; details: MIAPaCa2 (Pancreas), 72 hours
Procedure: as §1, §2, §3

MOLT-4 = assay: three day MTT cytotoxicity assay; type: cell-based, human; details: MOLT-4 (leukemia), 72 hours
Procedure: as §1, §2, §3

PA-1 = assay: three day MTT cytotoxicity assay; type: cell-based, human; details: PA-1 (ovary), 72 hours
Procedure: as §1, §2, §3

PTC = assay: three day MTT cytotoxicity assay; type: cell-based, human; details: PTC (colon), 72 hours
Procedure: as §1, §2, §3

SW620 = assay: three day MTT cytotoxicity assay; type: cell-based, human; details: 72 hours
Procedure: as §1, §2, §3

tubulin = tubulin polymerization in vitro (absorbance at 340 nm); type: biochemical; details: tubulin 1mg/ml, 37°C, pH 6.9; read-out: IC50 values (uM) for inhibition of Tubulin Polymerization
Procedure: The cyclopentenone derivatives were checked for their effects on tubulin polymerization in vitro. Briefly, the tubulin assembly reaction was performed at 37°C in buffer containing 80 mM PIPES, 1mM EGTA, 1.0 mM GTP and 1mM MgCl2 (pH 6.9) at a tubulin concentration of 1mg/ml in the presence or absence of the cyclopentenone derivatives. The final concentration of the cyclopentenone derivatives in the reaction mixture varied from 1-5uM. The derivatives were dissolved in 0.1% DMSO. The control experiments were carried out with 0.1% DMSO. The tubulin polymerization was followed by measurement of the absorbance of the solution at 340 nm every 30 seconds. […] Thus the cyclopentenone derivatives mediated their observed anticancer activities by tubulin depolymerization.

Caspase-3 = Caspase-3 induction in KB cells (colorimetric substrate DEVD-pNA); type: cell-based, Human; details: 5ug/ml
Procedure: Human squamous cell carcinoma (KB) were plated in a 25 cm^2 flask. When cultures achieved confluence, the cyclopentenone derivative of structure 20 was added to the cells. The final concentration of derivative of the structure 20 in the flask was 5ug/ml. The untreated wells served as controls. The cells were incubated with the drug for 2 different time points of 6 and 16 hours at 37°C. The cells were collected by centrifugation at 2000 r.p.m. for 10 minutes. The supernatant was gently removed and discarded while Lysis Buffer was added to the cell pellet (25ul of lysis buffer per […]). The cell lysate was incubated on ice for 10 minutes and centrifuged at 10,000-x g for 1 minute. The supernatant was transferred to a new tube and kept on ice. 50ul of the cell lysate was added in a 96 well plate. To this was added 2x Reaction Buffer. Prior to using reaction buffer, 10ul of fresh DTT stock per 1 ml of 2x Reaction Buffer was added. To each well 5ul of Caspase-3 colorimetric substrate (DEVD-pNA) was added. The plate was incubated for 1-2 hours at […]. and read at 405nm.
The level of caspase enzymatic activity in the cell lysate is directly proportional to the absorbance at 405nm. […]

VEGF = VEGF levels in ECV304 endothelial cells (ELISA); type: cell-based, Human; details: 5ug/ml, 4 hours
Procedure: Human endothelial cells (ECV304) were plated at the density of 8-10 x10^5 cells per 2 ml in a six well plate. After an overnight incubation of cells at 37°C, cyclopentenone derivatives at a concentration of 5ug/ml was added to the wells. The untreated wells served as controls. The plates were incubated for 4 hours at 37°C. The medium was collected from all the wells (control and treated) and spun down at 2000 r.p.m to remove the cellular material. The supernatant was collected and used for ELISA (Quantikine human VEGF, R&D Systems). The assay employs the quantitative sandwich enzyme immunoassay technique. A monoclonal antibody specific for VEGF has been pre-coated onto a microplate. Standards and samples were pipetted into the wells and VEGF present was bound by the immobilized antibody. After washing away the unbound substances, an enzyme-linked polyclonal antibody specific for VEGF was added to the wells. Following a wash to remove any unbound antibody-enzyme reagent, a substrate solution was added to the wells and color developed in proportion to the amount of VEGF bound in the initial step. The optical density of each well was determined within 30 minutes using a microplate reader set to 450nm and reference wavelength at 540nm. The VEGF levels were inhibited by the addition of cyclopentenone derivatives in vitro.

PTC tumor xenografts = assay: In vivo anti-tumor activity on PTC tumor xenografts; set-up: species or system Balb/c athymic mice; details: intravenously 0.5 mg/100 µL once a day for 14 days, day 23, compared to controls
Procedure: PTC tumor xenografts were grown in Balb/c athymic mice by subcutaneous inoculation of a single cell suspension of PTC cells (15 X 10^6 cells/100 µL). The tumor bearing animals were divided into 2 groups of three animals each including one group comprising untreated control animals. Treatment with compound of formula no. 49 was initiated when the average tumor volumes, as measured using a vernier caliper, were […]. Compound of formula no. 49 was administered intravenously to the assigned group of tumor bearing animals at a dose of 0.5 mg/100 µL once a day and the treatment was continued for a period of 14 days.
The antitumor activity of the compound was monitored by measuring tumor volumes every fourth day using the formula W*W*L*0.4 (W = smaller diameter, L = larger diameter). The percentage inhibition of tumor growth was calculated using the formula (1- tumor volume-treated / tumor volume-control) * 100. […] Compound of formula no. […] The percentage inhibition of tumor growth caused compound of formula no. 49 as compared to controls on day 23 was 45.8%.

SMILES: COc1ccc(C2=C(c3cc(OC)c(OC)c(OC)c3)C(=O)CC2O)cc1O (stereo not shown) [Compound 39]
ED50 (ug/ml) 293 293: >100 µg/mL
ED50 (ug/ml) DU145 (DU145): 8 ± 1.5 µg/mL (≈ 20.7 µM)
ED50 (ug/ml) ECV 304 (ECV 304): >100 µg/mL
ED50 (ug/ml) Hep2 (Hep2): <1 µg/mL
ED50 (ug/ml) HuTu80 (HuTu80): 1.5 ± 0.1 µg/mL (≈ 3.88 µM)
ED50 (ug/ml) KB (KB): <1 µg/mL
ED50 (ug/ml) L132 (L132): <1 µg/mL
ED50 (ug/ml) MiaPaca (MIAPaCa2): >100 µg/mL
ED50 (ug/ml) MOLT4 (MOLT-4): 62.5 ± 5.0 µg/mL (≈ 162 µM)
ED50 (ug/ml) PA1 (PA-1): <1 µg/mL
ED50 (ug/ml) PTC (PTC): 78 ± 4.0 µg/mL (≈ 202 µM)
ED50 (ug/ml) SW620 (SW620; SW620 (colon)): <1 µg/mL
IC50 (tubulin): 1.4 ± 0.6 µM
Percent Induction of Caspase-3 6 hours (Caspase-3): 12.8 ± 0.2%
Percent Induction of Caspase-3 16 hours (Caspase-3): 17.0 ± 1.5%
Percent Reduction in VEGF (VEGF): 21.9 ± 1.5%

IC50 (tubulin): 2.3 ± 0.5 µM
SMILES: COc1ccc(C2=C(c3cc(OC)c(OC)c(OC)c3)C(=NO)C(O)C2)cc1 (stereo not shown) [Compound 49]
ED50 (ug/ml) DU145 (DU145): >100 µg/mL
ED50 (ug/ml) ECV 304 (ECV 304): >100 µg/mL
ED50 (ug/ml) Hep2 (Hep2): <1.0 µg/mL
ED50 (ug/ml) KB (KB): <1.0 µg/mL
ED50 (ug/ml) L132 (L132): < 1.0 µg/mL
ED50 (ug/ml) MiaPaca (MIAPaCa2): 24 ± 3.5 µg/mL (≈ 62.3 µM)
ED50 (ug/ml) MOLT4 (MOLT-4): <1.0 µg/mL
ED50 (ug/ml) PA1 (PA-1): <1.0 µg/mL
ED50 (ug/ml) PTC (PTC): <1.0 µg/mL
ED50 (ug/ml) SW620 (SW620; SW620 (ovary)): <1.0 µg/mL
Percent Induction of Caspase-3 6 hours (Caspase-3): 26.7 ± 2.8%
Percent Induction of Caspase-3 16 hours (Caspase-3): 31.9 ± 3.2%
Percent Reduction in VEGF (VEGF): 38.6 ± 1.9%
percentage inhibition of tumor growth (PTC tumor xenografts): 45.8%
